Results on twelve molecules are retold here after patent US5512671A, “Ether lipid-nucleoside covalent conjugates” (Wake Forest University, priority 1995, dated 1996).

Data set [1] has as its system HIV-1. In words: Plaque assay: inhibition of HIV-1 syncytial plaque formation in CEM-SS cells (Example 15). To be noted: for IC50: Human immunodeficiency virus 1, CEM-SS, 120 h, read-out: Inhibitory Concentration50 for HIV-1 Plaque Formation; for Differential Selectivity: ratio IC50 for cytotoxicity / IC50 for HIV1 plaque formation. Format: cell-based, human immunodeficiency virus type 1 (HIV-1). The text has this: Anti-HIV1 Activity of Lipid-Nucleoside Conjugates. […] In brief, CEM-SS cell monolayers were infected with HIV-1. […] Plaques were counted at five days after infection. In this assay HIV-1 syncytial plaques are seen as large, multicellular foci (10 to 25 nuclei/syncytium) that appear either brown and granular or clear. Silnce the number of HIV-1 syncytial plaques correlates with reverse transcriptase (RT) and p24 core antigen activity in the HIV-1 infected cell overlay fluids, the syncytial plaque assay can be used to quantify the amount of infectious virus. […] The activity of p24 core antigen induced by HIV-1 infection of CEM-SS cells was measured spectrophotometrically using the commercial Coulter EIA.

Another data set in a line: in vitro. Conditions: human, cem-ss cells.
The subject of data set [2] is HIV-1. Kind of data set: HIV-1 plaque formation in CEM-SS cells (Example 23). Conditions: for IC50: read-out: IC50 HIV-1 Plaque Formation; for D.S. (Differential selectivity): average IC50 for CEMSS cell growth / average IC50 for HIV1 plaque formation. The class given is cell-based. How it is done: Anti-HIV1 Activity of Lipid-Nucleoside Conjugates. CEM-SS cells were seeded (50,000 cells/ml RPMI-1640 growth medium) as a monolayer in 96-well dishes, innoculated with 50 to 100 plaque forming units of HIV-1 and overlaid with serial dilutions of lipid-nucleoside conjugate in RPHI-1640 growth medium. Plaques were counted after five days incubation at 37° C. to determine the 50% inhibitory concentration.

In data set [3] the test system is HIV-1. In words: HIV-1 induced RT in persistently infected monocyte/macrophage (U1) cells. To be noted: control 79,328 DPM = 100. Format: cell-based. The text has this:
(§1) See C. Perno et al., J. Exp. Med. 168, 1111 (1984).

For data set [4], the system named is HIV-1. Kind of data set: Infectious HIV-1 production (PFU) in persistently infected monocyte/macrophage (U1) cells. The class given is cell-based.
Description: as §1

Data set [5] relates to HIV-1. Kind of data set: HIV-1 induced p24 core antigen synthesis in persistently infected monocyte/macrophage (U1) cells. The class given is cell-based. Conditions: control 94 = 100.
Description: as §1

The test system of data set [6] is CEM-SS cells. Kind of data set: CEM-SS cell growth, 3H-Tdr pulse label DNA synthesis (Example 23). The class given is cell-based. To be noted: Homo sapiens, 48 hours at 37° C., then 3H-Tdr 8 hours.
Data set [7] relates to CEM-SS cells. Kind of data set: Cell cytotoxicity (Example 15, Table 1). Conditions: conjugate IC50 53.8 μM vs AZT IC50 5.6 μM.
The mark [8] stands for this setting: Human immunodeficiency virus 1, 120 h, CEM-SS cells, five days incubation at 37° C.

The structures appear in SMILES notation. A value given as a limit tells only on which side of the number the result lay.

In general, CC50 refers to the concentration at which the toxic effect on the cells reaches its halfway point. The low end stands for harm at low concentration, the high end for better tolerance by the cells. Consider `CCCCCCCCCCCCCCCCCC(=O)NCC(COP(=O)(O)OC[C@@H]1CC[C@H](n2cnc3c(=O)[nH]cnc32)O1)OCC` (stereo partly drawn) [Compound D, 2,3,-dideoxyinosine-5'-monophosphate-D,L-3-octadecanamido-2-ethoxypropane], for which, in the data set with HIV-1 [1], the IC50 came to 1560 ± 800 nM and the “Differential Selectivity” value is above 64. Moreover, the CC50 in the data set “in vitro” is above 100000 nM.

Take `CCCCCCCCCCCCCCCCOCC(COP(=O)([O-])OC(CC(=O)OC[C@H]1O[C@@H](n2cc(C)c(=O)[nH]c2=O)C[C@@H]1N=[N+]=[N-])C[N+](C)(C)C)OCC` (stereo partly drawn) [Compound AA, 3'-Azido-3'-deoxythymidine-5'-butyrate-γ-N,N,N-trimethyl-ammonium-β-(1-phospho-2-ethoxy-3-hexadecyloxypropane)]: the IC50 in the data set on HIV-1 [2] (setting [8]) came out at 4 nM. Further, the “D.S. (Differential selectivity)” value with HIV-1 [2] is reported as 3375.

For `CCCCCCCCCCCCCCCCCC(=O)NCC(COP(=O)([O-])OC(CC(=O)OC[C@H]1O[C@@H](n2cc(C)c(=O)[nH]c2=O)C[C@@H]1N=[N+]=[N-])C[N+](C)(C)C)OCC` (stereo partly drawn) [BB, 3'-Azido-3-deoxythymidine-5'-butyrate-γ-N,N,N-trimethyl-ammonium-β-(1-phospho-2-ethoxy-3octadecanamidopropane)], the IC50 in the data set with HIV-1 [2] (setting [8]) is 40 nM. For the same molecule, the “D.S. (Differential selectivity)” value with HIV-1 [2] was 342.

Take `CCCCCCCCCCCCCCCCSCC(COP(=O)(O)OC[C@H]1O[C@@H](n2cc(C)c(=O)[nH]c2=O)C[C@@H]1N=[N+]=[N-])OC` (stereo partly drawn) [Compound C, 3'azido-3'-deoxythymidine-5'-monophosphate-D,L-3-hexadecylthio-2-methoxypropane]: in the data set on HIV-1 [1], the IC50 worked out at 20 ± 10 nM and the “Differential Selectivity” value was 1465. In addition, the CC50 in “in vitro” came to 29200 ± 5700 nM.

Turning to `Cc1cn([C@H]2C[C@H](N=[N+]=[N-])[C@@H](CO)O2)c(=O)[nH]c1=O` [AZT, 3'-azido-3'-deoxythymidine], the “RT DPM, Percent of Control” value in the data set with HIV-1 [3] was 90% of Control. The IC50 came out at 4 ± 1 nM with HIV-1 [1] and 4 nM in the data set on HIV-1 [2] (Human immunodeficiency virus 1, CEM-SS, 120 h). The “inhibition of infectious HIV-1 production” value with HIV-1 [4] was determined as 13%. In addition, the “PFU, Percent of Control” value in the data set with HIV-1 [4] (control 750 PFU = 100) is on record as 87% of Control. In the data set on HIV-1 [5], the “p24 core Ag, Percent of Control” value is reported as 101% of Control. The same molecule showed a half-maximal cytotoxic concentration (CC50) in the data set “in vitro” of 5600 nM.

With `CCCCCCCCCCCCCCCCOCC(COP(=O)(O)OP(=O)(O)OCC1OC(n2cc(C)c(=O)[nH]c2=O)CC1N=[N+]=[N-])OCC` [A, 3'-Azido-3'-deoxythymidine-5'-diphosphate-D,L-3-hexadecyloxy-2-ethoxypropane], the IC50 in the data set on CEM-SS cells [6] is above 100000 nM.

For the molecule `CCCCCCCCCCCCCCCCCC(=O)NCC(COP(=O)(O)OC[C@H]1O[C@@H](n2cc(C)c(=O)[nH]c2=O)C[C@@H]1N=[N+]=[N-])OCC` (some centres unmarked) [A], the IC50 in the data set on HIV-1 [1] was found to be 30 ± 20 nM. In addition, the midpoint of cytotoxicity in the data set “in vitro”, the CC50, lay at 53800 ± 7800 nM.

Turning to `O=c1[nH]cnc2c1ncn2[C@H]1CC[C@@H](CO)O1` [DDI, dideoxyinosine, reference compound], in the data set on HIV-1 [1], the IC50 is 1700 nM. The molecule further had a CC50 in the data set “in vitro” above 100000 nM.

Turning to `CCCCCCCCCCCCCCCCCC(=O)NCC(COP(=O)(O)OP(=O)(O)OC[C@H]1O[C@@H](n2cc(C)c(=O)[nH]c2=O)C[C@@H]1N=[N+]=[N-])OCC` (stereo partly drawn) [Compound H, 3'-Azido-3-deoxythymidine-5'-diphosphate-D,L-3-octadecanamido-2-ethoxypropane], the IC50 was 6600 nM in the data set with CEM-SS cells [6] and 11 nM with HIV-1 [2] (setting [8]). In the data set on HIV-1 [2], the “D.S. (Differential selectivity)” value is given as 600.

On to `CCCCCCCCCCCCCCCCCC(=O)NCC(COP(=O)(O)OC[C@H]1O[C@@H](n2cc(C)c(=O)[nH]c2=O)C[C@@H]1N=[N+]=[N-])OCC` (stereo partly drawn) [Compound A, 3,-azido-3'-deoxythymidine-5'-monophosphate-D,L-3-octadecanamido-2-ethoxypropane], for which the “decrease in cell cytotoxicity compared to AZT” value with CEM-SS cells [7] is recorded as “about ten-fold”.

As for `CCCCCCCCCCCCCCCCOCC(CP(=O)(O)OC[C@H]1O[C@@H](n2cc(C)c(=O)[nH]c2=O)C[C@@H]1N=[N+]=[N-])OC` (stereo partly drawn) [Compound E, 3'-Azido-3'-deoxythymidine-5'-phosphono-D,L-3-hexadecyloxy-2-methoxypropane], in the data set on HIV-1 [1], the IC50 turned out to be 20 ± 10 nM and the “Differential Selectivity” value worked out at 1260. The molecule also came in with a 50% cytotoxic concentration (CC50) in “in vitro” of 25200 ± 1100 nM.

As to `CCCCCCCCCCCCCCCCOCC(COP(=O)(O)OC[C@H]1O[C@@H](n2cc(C)c(=O)[nH]c2=O)C[C@@H]1N=[N+]=[N-])OCC` (stereo partly drawn) [Compound B, 3'-azido-3'deoxythymidine-5'-monophosphate-D,L-3-hexadecyloxy-2-ethoxypropane], in the data set on HIV-1 [1], the IC50 stood at 30 ± 20 nM and the “Differential Selectivity” value was determined as 1167. In “in vitro”, this molecule displayed a CC50 of 35000 ± 2100 nM.
